Literature values as cited in patent publication US7041676B2, “Compounds, compositions, and methods” (Cytokinetics, Inc., priority 2002, dated 2006).

Tested on: A549 cells
Conditions: data provided by National Cancer Institute, Developmental Therapeutic Program

**Q.** For `NC(=O)NO` [hydroxyurea], which GI50 is on record?
**A.** The GI50 was 500000 nM.

**Q.** With `CC(=O)O[C@H]1C(=O)[C@@]2(C)[C@H]([C@H](OC(=O)c3ccccc3)[C@]3(O)C[C@H](OC(=O)[C@H](O)[C@@H](NC(=O)c4ccccc4)c4ccccc4)C(C)=C1C3(C)C)[C@]1(OC(C)=O)CO[C@@H]1C[C@@H]2O` [paclitaxel] as the molecule, how does the GI50 read?
**A.** The GI50 was 4 nM.

**Q.** With `O=c1[nH]cc(F)c(=O)[nH]1` [5-fluorouracil] as the molecule, how does the GI50 read?
**A.** The GI50 was 1000 nM.

**Q.** For `COc1cccc2c1C(=O)c1c(O)c3c(c(O)c1C2=O)C[C@@](O)(C(=O)CO)C[C@@H]3O[C@H]1C[C@H](N)[C@H](O)[C@H](C)O1` [doxorubicin], which GI50 is on record?
**A.** Its GI50 is 63 nM.
